Results from patent US20130189203A1, “COSMETIC ADDITIVES CONTAINING ALKALI PHOSPHATES” (BK Giulini GmbH, priority 2012, published 2013).

Assay: complex formation with iron ions in sun protection formulation, colour measurement (Minolta Chroma-Meter CR 300)
Conditions: formulation + 0.01% iron (III) chloride hexahydrate + 0.09% additive, after 6 weeks
Procedure: As a base formulation, the formulation of a sun protection agent with butyl methoxy dibenzoylmethane was used. This UVA filter forms an intensive red complex with traces of irons The complexing effect was studied using the following formulation:
The aqueous phase of the formulation was prepared by dissolving Phase B in Phase A until a homogeneous phase resulted. This was brought to a temperature of ca. 75-80° C. Phase C was prepared by dissolving Cosmedia Gel CC in the rest of Phase C until a homogeneous phase resulted. This was heated to ca. 75-80° C., followed by addition of phase D, and then Phase E was stirred in. The mixture of phases C, D, and E was added to the aqueous phase, and this mixture was stirred 5 min at 750 rpm. Then the formulation was cooled to room temperature while stirring at 200 rpm, during which at ca. 60° C. the mixture was homogenised 1 min at 11000 rpm with the aid of an Ultra Turrax stirrer.
The following additives were added to the described formulation:
The respective amount of iron (III) chloride hexahydrate, Carephos N (linear alkali polyphosphate), disodium EDTA, Utanit AF (acid diphosphate, for comparison), and [sic] Phoskadent Pyro (alkali diphosphate, for comparison) was worked into the aqueous phase and was removed from the water content [sic].
The evaluation was carried out by colour measurement. Using a Minolta Chroma-Meter CR 300, the colour status of the formulas was determined after 6 weeks. The measurements yielded values which allowed an objective comparison of the individual formulations. The measurements determined 3 values: L, a, and b. The L value describes lightness and darkness, with 0 representing perfect black and 100 perfect white. The a value describes the red-green value, and the b value describes the yellow-blue value. There are different prefix signs on the a and b values, in accordance with the present CIE Lab system, according to which no colour can be simultaneously reddish and greenish or simultaneously yellowish and bluish. Thus, −a represents green, +a represents red, −b represents blue, and +b represents yellow. […]

SMILES: O=C([O-])CN(CCN(CC(=O)[O-])CC(=O)O)CC(=O)O.[Na+].[Na+] [Disodium EDTA]
- L value (difference to white standard): −26.44
- a value (red-green; difference to white standard): +5.18
- b value (yellow-blue; difference to white standard): +4.10
